Data as given in ChEMBL document CHEMBL1201862, “PubChem BioAssay data set” (2004).
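How tested: cells in 96-well plates exposed to compound for 48 hours at five concentrations. GI50 is the concentration that inhibits growth by half.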 Calls of active or inactive are those of the source. Cut-off read from the data, not from the text of the source: active = GI50 up to about 1.1 µM and inactive = higher.

Legend:
Experiment in all cases: NCI anticancer screen, dose series, 48 h
ACHN = test system: ACHN
SK-MEL-5 = test system: SK-MEL-5
HCC 2998 = test system: HCC 2998
HCT-15 = test system: HCT-15
M14 = test system: M14
RXF 393 = test system: RXF 393
UO-31 = test system: UO-31
NCI/ADR-RES = test system: NCI/ADR-RES
Malme-3M = test system: Malme-3M
SF-539 = test system: SF-539
SK-MEL-2 = test system: SK-MEL-2
OVCAR-4 = test system: OVCAR-4
LOX IMVI = test system: LOX IMVI
MOLT-4 = test system: MOLT-4
OVCAR-5 = test system: OVCAR-5
HL-60 = test system: HL-60
MCF7 = test system: MCF7
786-0 = test system: 786-0
U-251 = test system: U-251
MDA-MB-231 = test system: MDA-MB-231

Structure (SMILES)	GI50 (ACHN)	GI50 (SK-MEL-5)	GI50 (HCC 2998)	GI50 (HCT-15)	GI50 (M14)	GI50 (RXF 393)	GI50 (UO-31)	GI50 (NCI/ADR-RES)	GI50 (Malme-3M)	GI50 (SF-539)	GI50 (SK-MEL-2)	GI50 (OVCAR-4)	GI50 (LOX IMVI)	GI50 (MOLT-4)	GI50 (OVCAR-5)	GI50 (HL-60)	GI50 (MCF7)	GI50 (786-0)	GI50 (U-251)	GI50 (MDA-MB-231)
Clc1ccc(-c2nnc(-c3c(Cl)c(Cl)c(Cl)c(Cl)c3-c3nc4ccccc4[nH]3)o2)cc1	97.3 µM (inactive)	40.4 µM (inactive)	59 µM (inactive)	55.3 µM	69.8 µM (inactive)	40.7 µM (inactive)	42.7 µM (inactive)	47.4 µM (inactive)	> 100 µM (inactive)	> 100 µM (inactive)	> 100 µM (inactive)	84.9 µM (inactive)	71.9 µM (inactive)	27.2 µM (inactive)	> 100 µM (inactive)	> 100 µM (inactive)	35.1 µM (inactive)	50.4 µM (inactive)		
O=C(NCCNCCO)c1cccc2ccc(-c3ccccc3)nc12	2.26 µM (inactive)	3.59 µM (inactive)	5.01 µM (inactive)	3.8 µM	5.28 µM (inactive)	3.98 µM (inactive)	3.44 µM (inactive)			3.63 µM (inactive)	7.74 µM (inactive)	6.5 µM (inactive)	2.7 µM (inactive)	1.54 µM (inactive)	4.8 µM (inactive)	3.17 µM (inactive)		6.87 µM (inactive)	4.82 µM (inactive)	
O=C(O)c1cccc(S(=O)(=O)NN2C(=O)CSC2c2ccccc2Cl)c1 (stereo unspecified)	> 100 µM (inactive)	> 100 µM (inactive)	> 100 µM (inactive)	> 100 µM	> 100 µM (inactive)	> 100 µM (inactive)	> 100 µM (inactive)		> 100 µM (inactive)	> 100 µM (inactive)	> 100 µM (inactive)		> 100 µM (inactive)	> 100 µM (inactive)	> 100 µM (inactive)	> 100 µM (inactive)	> 100 µM (inactive)	> 100 µM (inactive)	> 100 µM (inactive)	> 100 µM (inactive)
Cc1ccc(/N=C2/S/C(=C3/CCC=C3N3CCOCC3)N(c3ccc(Cl)cc3)/C2=N/c2ccc(C)cc2)cc1	> 100 µM (inactive)	> 100 µM (inactive)	> 100 µM (inactive)	> 100 µM	> 100 µM (inactive)	> 100 µM (inactive)	> 100 µM (inactive)		> 100 µM (inactive)		> 100 µM (inactive)			> 100 µM (inactive)	> 100 µM (inactive)	> 100 µM (inactive)	> 100 µM (inactive)	> 100 µM (inactive)	> 100 µM (inactive)	> 100 µM (inactive)
Cc1cc([N+](=O)[O-])ccc1Sc1c2ccccc2nc2cc(Cl)ccc12	44.9 µM (inactive)	39.4 µM (inactive)	> 100 µM (inactive)	51.4 µM	40.8 µM (inactive)	84.5 µM (inactive)	45.2 µM (inactive)		> 100 µM (inactive)	25.9 µM (inactive)	22.9 µM (inactive)	41.4 µM (inactive)	24.9 µM (inactive)	21.3 µM (inactive)	56.2 µM (inactive)	5.78 µM (inactive)		35.2 µM (inactive)	27.8 µM (inactive)	
CC[C@]1(Cc2ccc(OC)c(OC)c2)[C@@H]2C[C@@H](C(=O)OC)ON2O[C@H](OC2CCCC2(c2ccccc2)c2ccccc2)[C@@H]1OC(C)=O (stereo partly specified)	> 100 µM (inactive)	> 100 µM (inactive)		> 100 µM	> 100 µM (inactive)	> 100 µM (inactive)	> 100 µM (inactive)	> 100 µM (inactive)			> 100 µM (inactive)		> 100 µM (inactive)	> 100 µM (inactive)	> 100 µM (inactive)		> 100 µM (inactive)	> 100 µM (inactive)	> 100 µM (inactive)	> 100 µM (inactive)
N#Cc1c2ccccc2c(Cc2ccc3c(c2)OCCOCCOCCOCCOCCO3)c2ccccc12	9.86 µM (inactive)	4.35 µM (inactive)	11.8 µM (inactive)	5.57 µM	5.37 µM (inactive)	2.32 µM (inactive)	3.85 µM (inactive)		6.44 µM (inactive)	14.1 µM (inactive)	6.34 µM (inactive)	3 µM (inactive)	6.04 µM (inactive)	2.82 µM (inactive)	16.4 µM (inactive)	1.85 µM (inactive)		10.9 µM (inactive)	9.44 µM (inactive)	
CCCC(=O)N(C)/N=N/c1ccc(C(=O)OCC)cc1	> 100 µM (inactive)	> 100 µM (inactive)	> 100 µM (inactive)	> 100 µM	> 100 µM (inactive)	> 100 µM (inactive)	42.6 µM (inactive)		> 100 µM (inactive)	> 100 µM (inactive)	> 100 µM (inactive)	> 100 µM (inactive)	> 100 µM (inactive)	> 100 µM (inactive)	> 100 µM (inactive)	> 100 µM (inactive)	> 100 µM (inactive)	> 100 µM (inactive)	> 100 µM (inactive)	> 100 µM (inactive)
